Experimental data reported in patent publication US9174994B2, “Enhanced treatment regimens using mTor inhibitors” (INTELLIKINE LLC, priority 2011, dated 2015).

These compounds were tested on PC3 (assay: PC3 proliferation). Conditions: Homo sapiens, PC-3; Table 1.
Type: cell-based

Row | SMILES | IC50 [µM]
1 | CC(=O)Nc1nc2cc(-c3nn(C(C)C)c4ncnc(N)c34)ccc2o1 [Compound 2] | < 1
2 | CC(C)n1nc(-c2ccc3nc(N)oc3c2)c2c(N)ncnc21 [Compound 4] | < 10
3 | Nc1nc2cc(-c3nn(C4CCOCC4)c4ncnc(N)c34)ccc2o1 [Compound 5] | < 0.1
4 | Nc1nc2cc(-c3nn(C4CCC(N5CCOCC5)CC4)c4ncnc(N)c34)ccc2o1 (stereo not shown) [Compound 6] | < 1
5 | CC(=O)N1CCC(n2nc(-c3ccc4oc(N)nc4c3)c3c(N)ncnc32)CC1 [Compound 7] | < 10
6 | CC(C)n1cc(-c2ccc3oc(N)nc3c2)c2c(N)ncnc21 [Compound 8] | < 0.1
7 | Nc1nc2cc(-c3cn(C4CCOCC4)c4ncnc(N)c34)ccc2o1 [Compound 9] | < 0.1
8 | CC(C)n1nc(-c2ccc3onc(N)c3c2)c2c(N)ncnc21 [Compound 10] | > 10
9 | CC(=O)Nc1noc2cc(-c3nn(C(C)C)c4ncnc(N)c34)ccc12 [Compound 11] | > 10
10 | CC(C)n1nc(-c2ccc3c(N)noc3c2)c2c(N)ncnc21 [Compound 12] | > 10
